Experimental data taken from patent US20200085789A1, “USE OF A PROTEASOME INHIBITOR FOR THE TREATMENT OF CENTRAL NERVOUS SYSTEM (CNS) CANCERS” (Celgene International II Sàrl, priority 2017, published 2020).

Experiment: Adverse events and dose-limiting toxicity (NCI-CTCAE v 4.03), MRZ ± BEV in recurrent grade IV malignant glioma patients
Format: in vivo, human
Text: An adverse event (AE) is any noxious, unintended, or untoward medical occurrence that may appear or worsen in a subject during the course of a study. […] Any worsening (i.e., any clinically significant adverse change in the frequency or intensity of a pre-existing condition) should be considered an AE.
The severity/intensity of AEs will be graded based upon the subject's symptoms according to the current active minor version of the Common Terminology Criteria for Adverse Events ( ).

[1] = treated with MRZ 0.8 mg/m^2 + BEV (N = 27)

C[C@@]12OC(=O)[C@]1([C@@H](O)[C@@H]1C=CCCC1)NC(=O)[C@@H]2CCCl [MRZ, marizomib]
Fall: patients, worst Grade 2 (Part 1 N = 36, Part 2 N = 30): 1 | Fatigue: patients, Total (Part 1 N = 36, Part 2 N = 30): 20 | Fatigue: patients, worst Grade 1 (Part 1 N = 36, Part 2 N = 30): 8 | Fatigue: patients, worst Grade 2 (Part 1 N = 36, Part 2 N = 30): 11 | Fatigue: patients, worst Grade 3 (Part 1 N = 36, Part 2 N = 30): 2 | Hallucination: patients, Total (Part 1 N = 36, Part 2 N = 30): 12 | Hallucination: patients, worst Grade 1 (Part 1 N = 36, Part 2 N = 30): 6 | Hallucination: patients, worst Grade 2 (Part 1 N = 36, Part 2 N = 30): 4 | Hallucination: patients, worst Grade 3 (Part 1 N = 36, Part 2 N = 30): 1 | Hallucination: patients, worst Grade 4 (Part 1 N = 36, Part 2 N = 30): 1 | Headache: patients, Total (Part 1 N = 36, Part 2 N = 30): 14 | Headache: patients, worst Grade 1 (Part 1 N = 36, Part 2 N = 30): 10 | Headache: patients, worst Grade 2 (Part 1 N = 36, Part 2 N = 30): 3 | Headache: patients, worst Grade 3 (Part 1 N = 36, Part 2 N = 30): 1 | Hyperglycemia: patients, Total (Part 1 N = 36, Part 2 N = 30): 7 | Hyperglycemia: patients, worst Grade 1 (Part 1 N = 36, Part 2 N = 30): 2 | Hyperglycemia: patients, worst Grade 2 (Part 1 N = 36, Part 2 N = 30): 4 | Hyperglycemia: patients, worst Grade 3 (Part 1 N = 36, Part 2 N = 30): 1− | Hypertension: patients, Total (Part 1 N = 36, Part 2 N = 30): 4 | Hypertension: patients, worst Grade 1 (Part 1 N = 36, Part 2 N = 30): 1 | Hypertension: patients, worst Grade 2 (Part 1 N = 36, Part 2 N = 30): 1 | Hypertension: patients, worst Grade 3 (Part 1 N = 36, Part 2 N = 30): 2 | Hypokalemia: patients, Total (Part 1 N = 36, Part 2 N = 30): 9 | Hypokalemia: patients, worst Grade 1 (Part 1 N = 36, Part 2 N = 30): 7 | Hypokalemia: patients, worst Grade 2 (Part 1 N = 36, Part 2 N = 30): 2 | Infusion Site Reaction (includes edema, pain, phlebitis, redness): patients, Total (Part 1 N = 36, Part 2 N = 30): 5 | Infusion Site Reaction: patients, worst Grade 1 (Part 1 N = 36, Part 2 N = 30): 3 | Infusion Site Reaction: patients, worst Grade 2 (Part 1 N = 36, Part 2 N = 30): 2 | Insomnia: patients, Total (Part 1 N = 36, Part 2 N = 30): 1. | Insomnia: patients, worst Grade 1 (Part 1 N = 36, Part 2 N = 30): 7 | Insomnia: patients, worst Grade 2 (Part 1 N = 36, Part 2 N = 30): 5 | Insomnia: patients, worst Grade 3 (Part 1 N = 36, Part 2 N = 30): 1 | Nausea: patients, Total (Part 1 N = 36, Part 2 N = 30): 11 | Nausea: patients, worst Grade 1 (Part 1 N = 36, Part 2 N = 30): 7 | Nausea: patients, worst Grade 2 (Part 1 N = 36, Part 2 N = 30): 2 | Nausea: patients, worst Grade 3 (Part 1 N = 36, Part 2 N = 30): 2 | Platelet Count Decreased: patients, Total (Part 1 N = 36, Part 2 N = 30): 7 | Platelet Count Decreased: patients, worst Grade 1 (Part 1 N = 36, Part 2 N = 30): 7 | Vomiting: patients, Total (Part 1 N = 36, Part 2 N = 30): 10 | Vomiting: patients, worst Grade 1 (Part 1 N = 36, Part 2 N = 30): 8 | Vomiting: patients, worst Grade 3 (Part 1 N = 36, Part 2 N = 30): 2 | marizomib-related adverse events ≥3: confusional state (Phase 1): 3 | marizomib-related adverse events ≥3: headache (Phase 1): 3 | patients with marizomib-related serious adverse events (Phase 1): Four | Grade 4 serious adverse event (hallucination, MRZ-related) (Phase 2 monotherapy): one | treatment-related Grade ≥3 AEs in two or more patients (Phase 2 monotherapy): fatigue, hallucination, lethargy | Grade 4 serious adverse event (hallucination, MRZ-related) (Phase 2 monotherapy, listed as marizomib): One | Anaemia: # Patients, AE related to the labelled drug(s) (pts on MRZ+BEV): 6 | Anxiety: # Patients, AE related to the labelled drug(s) (pts on MRZ+BEV): 0 | Aphasia: # Patients, AE related to the labelled drug(s) (pts on MRZ+BEV): 0 | Appendicitis Perforated: # Patients, AE related to the labelled drug(s) (pts on MRZ+BEV): 0 | Asthenia: # Patients, AE related to the labelled drug(s) (pts on MRZ+BEV): 0 | Ataxia: # Patients, AE related to the labelled drug(s) (pts on MRZ+BEV): 6 | Confusional State: # Patients, AE related to the labelled drug(s) (pts on MRZ+BEV): 6 | Constipation: # Patients, AE related to the labelled drug(s) (pts on MRZ+BEV): 4 | Convulsion: # Patients, AE related to the labelled drug(s) (pts on MRZ+BEV): 0 | Delusion: # Patients, AE related to the labelled drug(s) (pts on MRZ+BEV): 1 | Depressed Level of Consciousness: # Patients, AE related to the labelled drug(s) (pts on MRZ+BEV): 0 | Diarrhoea: # Patients, AE related to the labelled drug(s) (pts on MRZ+BEV): 9 | Dizziness: # Patients, AE related to the labelled drug(s) (pts on MRZ+BEV): 8 | Dysarthria: # Patients, AE related to the labelled drug(s) (pts on MRZ+BEV): 1 | Dysphagia: # Patients, AE related to the labelled drug(s) (pts on MRZ+BEV): 0 | Dysphonia: # Patients, AE related to the labelled drug(s) (pts on MRZ+BEV): 0 | Dyspnoea: # Patients, AE related to the labelled drug(s) (pts on MRZ+BEV): 0 | Ear Infection: # Patients, AE related to the labelled drug(s) (pts on MRZ+BEV): 0 | Embolism: # Patients, AE related to the labelled drug(s) (pts on MRZ+BEV): 0 | Epistaxis: # Patients, AE related to the labelled drug(s) (pts on MRZ+BEV): 0 | Falls: # Patients, AE related to the labelled drug(s) (pts on MRZ+BEV): 3 | Fatigue: # Patients, AE related to the labelled drug(s) (pts on MRZ+BEV): 1 | Fracture of Femur: # Patients, AE related to the labelled drug(s) (pts on MRZ+BEV): 0 | Haemorrhage Intracranial: # Patients, AE related to the labelled drug(s) (pts on MRZ+BEV): 0 | Hallucination: # Patients, AE related to the labelled drug(s) (pts on MRZ+BEV): 11 | Headache: # Patients, AE related to the labelled drug(s) (pts on MRZ+BEV): 5 | Hemiparesis: # Patients, AE related to the labelled drug(s) (pts on MRZ+BEV): 0 | Hyperglycemia: # Patients, AE related to the labelled drug(s) (pts on MRZ+BEV): 0 | Hypertension: # Patients, AE related to the labelled drug(s) (pts on MRZ+BEV): 0 | Hypokalemia: # Patients, AE related to the labelled drug(s) (pts on MRZ+BEV): 0 | Hyponatremia: # Patients, AE related to the labelled drug(s) (pts on MRZ+BEV): 1 | Hypotension: # Patients, AE related to the labelled drug(s) (pts on MRZ+BEV): 0 | Infusion Site Pain: # Patients, AE related to the labelled drug(s) (pts on MRZ+BEV): 6 | Insomnia: # Patients, AE related to the labelled drug(s) (pts on MRZ+BEV): 1 | Lymphocyte Count Decreased: # Patients, AE related to the labelled drug(s) (pts on MRZ+BEV): 0 | Muscular Weakness: # Patients, AE related to the labelled drug(s) (pts on MRZ+BEV): 2 | Nausea: # Patients, AE related to the labelled drug(s) (pts on MRZ+BEV): 19 | Optic Nerve Disorder: # Patients, AE related to the labelled drug(s) (pts on MRZ+BEV): 0 | Pyramidal Tract Syndrome: # Patients, AE related to the labelled drug(s) (pts on MRZ+BEV): 0 | Tumor Metastasis: # Patients, AE related to the labelled drug(s) (pts on MRZ+BEV): 0 | Vision Blurred: # Patients, AE related to the labelled drug(s) (pts on MRZ+BEV): 3 | Vomiting: # Patients, AE related to the labelled drug(s) (pts on MRZ+BEV): 12 | time of onset of CNS adverse events (range): from the day of treatment to six days post-marizomib infusion | Anaemia related to the labelled drug(s) [1]: (18.5%) | Anaemia related to the labelled drug(s), patients [1]: 5 | Ataxia related to the labelled drug(s) [1]: (25.9%) | Ataxia related to the labelled drug(s), patients [1]: 7 | Confusional state related to the labelled drug(s) [1]: (25.9%) | Confusional state related to the labelled drug(s), patients [1]: 7 | Constipation related to the labelled drug(s) [1]: (18.5%) | Constipation related to the labelled drug(s), patients [1]: 5 | Diarrhoea related to the labelled drug(s) [1]: (29.6%) | Diarrhoea related to the labelled drug(s), patients [1]: 8 | Dizziness related to the labelled drug(s) [1]: (29.6%) | Dizziness related to the labelled drug(s), patients [1]: 8 | Dysphonia related to the labelled drug(s) [1]: (3.7%) | Dysphonia related to the labelled drug(s), patients [1]: 1 | Epistaxis related to the labelled drug(s) [1]: (0.0%) | Epistaxis related to the labelled drug(s), patients [1]: 0 | Fall related to the labelled drug(s) [1]: (11.1%) | Fall related to the labelled drug(s), patients [1]: 3 | Fatigue related to the labelled drug(s) [1]: (70.4%) | Fatigue related to the labelled drug(s), patients [1]: 19 | Hallucination related to the labelled drug(s) [1]: (44.4%) | Hallucination related to the labelled drug(s), patients [1]: 12 | Headache related to the labelled drug(s) [1]: (44.4%) | Headache related to the labelled drug(s), patients [1]: 12 | Hypertension related to the labelled drug(s) [1]: (3.7%) | Hypertension related to the labelled drug(s), patients [1]: 1 | Infusion site pain related to the labelled drug(s) [1]: (14.8%) | Infusion site pain related to the labelled drug(s), patients [1]: 4 | Muscular weakness related to the labelled drug(s) [1]: (11.1%) | Muscular weakness related to the labelled drug(s), patients [1]: 3 | Nausea related to the labelled drug(s) [1]: (63.0%) | Nausea related to the labelled drug(s), patients [1]: 17 | Platelet count decreased related to the labelled drug(s) [1]: (7.4%) | Platelet count decreased related to the labelled drug(s), patients [1]: 2 | Stomatitis related to the labelled drug(s) [1]: (11.1%) | Stomatitis related to the labelled drug(s), patients [1]: 3 | Upper-airway cough syndrome related to the labelled drug(s) [1]: (0.0%) | Upper-airway cough syndrome related to the labelled drug(s), patients [1]: 0 | Vomiting related to the labelled drug(s) [1]: (55.6%) | Vomiting related to the labelled drug(s), patients [1]: 15
